Measured values from patent publication US20140249143A1, “Compounds And Methods For Enhancing Innate Immune Responses” (GlaxoSmithKline LLC, priority 2011, published 2014).

Legend:
[1] = tested on: HCV genotype 1a subgenomic replicon; experiment: Anti-Hepatitis C replicon assay, genotype 1a (luciferase); type: cell-based; settings: Hepatitis C virus; luciferase activity measured 48 hours later; read-out: HCV Genotype 1A Replicon pEC50 (converted)
Experimental: (§1) Compounds were assayed for activity against HCV using the genotype 1a and 1b subgenomic replicon model systems. Stable cell lines bearing the genotype 1a and 1b replicons were used for screening of compounds. Both replicons are bicistonic and contain the firefly luciferase gene. The ET cell line is stably transfected with RNA transcripts harboring a I389luc-ubi-neo/NS3-3′/ET replicon with firefly luciferase-ubiquitin-neomycin phosphotransferase fusion protein and EMCV-IRES driven NS3-5B polyprotein containing the cell culture adaptive mutations (E1202G; T1280I; K1846T) (Krieger at al, 2001 and unpublished). The genotype 1a replicon is a stable cell line licensed from Apath LLC, modified to contain the firefly luciferase gene. The cells were grown in DMEM, supplemented with 10% fetal calf serum, 2 mM Glutamine, Penicillin (100 IU/mL)/Streptomycin (100 μg/mL), 1× nonessential amino acids, and 250-500 μg/mL G418 (“Geneticin”). They were all available through Life Technologies (Bethesda, Md.). The cells were plated at 0.5×10^4 cells/well in 384 well plates containing compounds. The final concentration of compounds ranged between 0.03 pM to 50 μm and the final DMSO concentration of 0.5-1%.
(§2) Luciferase activity was measured 48 hours later by adding a Steady glo (Promega, Madison, Wis.). Percent inhibition of replication data was plotted relative to no compound control. Under the same condition, cytotoxicity of the compounds was determined using cell titer glo (Promega, Madison, Wis.). IC50s were determined from a 10 point dose response curve using 3-4-fold serial dilution for each compound, which spans a concentration range>1000 fold. BioAssay determines the level of inhibition for each compound by normalizing cross-talk corrected plate values against the negative (low or background, cells with no compound present) and positive (high DMSO, no cells) controls to determine Percent Inhibition:
(§3) These normalized values are exported to IC50 where they are plotted against the molar compound concentrations using the standard four parameter logistic equation: […]

[2] = tested on: HCV genotype 1b subgenomic replicon; experiment: Anti-Hepatitis C replicon assay, genotype 1b (luciferase); type: cell-based; settings: Hepatitis C virus; luciferase activity measured 48 hours later; read-out: HCV Genotype 1B Replicon pEC50 (converted)
Experimental: as §1, §2, §3

[3] = tested on: ISG56 (Interferon-Stimulated Gene 56) promoter ISRE; experiment: ISG56 luciferase reporter assay in HEK 293 cells; type: cell-based; settings: Homo sapiens, HEK293; HEK 293 reporter, 24 hours; 100% = small molecule control test compound; read-out: ISG56 (Average Max Response) %
Experimental: Compounds of the present invention were tested against a HEK (Human Embryonic Kidney) 293 cell line that was stably transfected with a firefly luciferase reporter gene under the control of the ISG56 (Interferon-Stimulated Gene 56) promoter ISRE (Interferon-Stimulated Response Element). While the ISRE is in the opposite orientation of the wild type promoter, literature^1 cites that the response elements are pallindromic and function properly in either orientation. ^1Reich, N., Evans, B., Levy, D., Fahey, D., Knight, E., Damell, J. E. (1987) Interferon-induced transcription of a gene encoding a 15-kDa protein depends on an upstream enhancer element. See, Proc. Natl. Acad. Sci. 84, (6394-6398).
In preparation for the assay, test compounds were serially diluted 3-fold in DMSO from a typical top concentration of 5 mM and plated at 0.2 μL in a 384-well, polystyrene, tissue culture treated plate with lid (Greiner Bio-One North America, Inc., Monroe, N.C.) to generate 11-point dose response curves in the assay. Low control wells (0% response) contained 0.2 μL of DMSO alone, and high control wells (100% response) contained 0.2 μL of a small molecule control test compound.
Frozen stocks of the transfected HEK 293 cells were washed and recovered in DMEM I Ham's F-12 media (Invitrogen Corporation, Carlsbad, Calif.) supplemented with 10% v/v qualified Australian fetal bovine serum (FBS) (Invitrogen Corporation, Carlsbad, Calif.), 1× GlutaMAX™ (Invitrogen Corporation, Carlsbad, Calif.), 1×MEM non-essential amino acids (NEAA) (Invitrogen Corporation, Carlsbad, Calif.) and 500 μg/ml Geneticin® (Invitrogen Corporation, Carlsbad, Calif.). The cells were diluted to 500,000 cells/mL in the supplemented DMEM/Ham's F-12 media, and 20 μL of the cell suspension were added to each well of the previously prepared 384-well compound plate, resulting in 10,000 cells/well. The plate, with lid, were placed in a 37° C., 5% CO2 humidified incubator for 24 hours.
Following incubation, the plates were removed and placed on the bench top without lids to equilibrate to room temperature for 30 minutes. Steady-Glo® (Promega Corporation, Madison, Wis.) was prepared according to the manufacturer's instructions, and 10 μL were added to each plate well. After a twenty minute incubation at room temperature, luminescence was read on a ViewLux™ (PerkinElmer Inc., Waltham, Mass.).
The data for dose responses were plotted as % activation versus compound concentration following normalization using the formula 100*((U−C1)/(C2−C1)), where U was the unknown value, C1 was the average of the low (0% response) control wells and C2 was the average of the high (100% response) control wells. Curve fitting was performed with the equation y=A+((B−A)/(1+(10^x/10^C)^D)), where A was the minimum response, B was the maximum response, C was the log(EC50) and D was the Hill slope. The results for each test compound were recorded as pEC50 values (—C in the above equation) and as max response values at a given concentration.

ISGs and cytokines mRNA = experiment: Dose response of ISG induction in vivo; set-up: species or system CD-1 mice; settings: 0, 200, 600, 1000 mg/kg oral gavage, 24 h, blood and tissues
Experimental: Naive male CD-1 mice were obtained from Charles Rivers Laboratories (Wilmington, Mass.) and administered with Example 11 in a dose response (0, 200, 600, and 1000 mg/kg; three mice per dose group) by oral gavage. The dose of 200 mg/kg was in 0.5% HPMC/0.1% Tween 80 whereas the rest of doses were in 30% solutol/70% PEG400. At 24 h, the blood and tissues were collected and processed as described above. The gene expressions of various ISGs and cytokines were monitored by real time RT-PCR (see above for the details).

[4] = tested on: reconstructed human epidermis (RHE) keratinocytes; experiment: JAK/STAT induction in reconstructed human epidermis (western blot, real-time PCR); type: cell-based; settings: 10 μM (IFN-alpha 100 U/mL), 6 and 72 hrs
Experimental: First, reconstructed human epidermis (“RHE”) consisting of cultured human keratinocyte cells were incubated in triplicate with media containing either the media alone, media+0.1% DMSO, media containing 10 μM of several putative JAK/STAT activator compounds described herein in Tables 1 and 2 (Example 1, Example 2, Example 11, and compound no. 89 (as a negative control)), or media containing 100 U/mL of a positive control Interferon-alpha (IFN-alpha) recombinant protein at 37° C. in a humidified atmosphere containing 5% CO2, for 6 and 72 hours.
At the end of the incubation period, the RHE tissues were cut into two sections. One section was ¼ of the total size and the second section was […].

JAK/STAT = JAK/STAT activator assay; type: cell-based
STAT1 phosphorylation = STAT1 phosphorylation immunoblot in HCV replicon cells; type: cell-based; settings: IFNα 100 U/ml
Experimental: (§4) IFNα (100 U/ml) and DMSO were included as controls. The total cell lysates were analyzed on a 4-20% SDS-PAGE gradient gel and followed by immunoblotting using anti-phopho STAT1 antibody (Cell Signaling). The level of actin was monitored as a loading control. The bands were visualized by the alkaline phosphatase activity conjugated with the secondary antibody (Promega) using ProtoBlot II AP System™ (Promega).

[5] = tested on: interferon stimulated genes (ISGs); experiment: Expression of interferon stimulated genes in HCV replicon cells (real time RT-PCR); type: cell-based; settings: Example 1 2 μM, IFNα 100 U/ml
Excerpt: The up-regulation of interferon stimulated genes upon treatment with Example 1 was monitored by quantitative real time RT-PCR using specific primers for each gene, as shown in FIG. 3. […] Total RNA was isolated using RNeasy 96 kit (Qiagen) and converted to cDNA using High Capacity cDNA reverse transcription kit (Applied Biosystems). For real time PCR, the cDNA was used for PCR reactions using TaqMan Fast Universal PCR master mix (Applied Biosystems) and specific primers (Applied Biosystems). As housekeeping genes, actin and GAPDH were used for normalization. Data was calculated by the ΔΔCt method and fold change determined compared to DMSO-treated control samples.

human JAK1 = target: T1, human JAK1 (Homo sapiens, UniProt P23458); experiment: JAK1 reconstitution in U4A and 2fGH cells (phosphor-STAT1 western blot, Taqman mRNA); type: cell-based; settings: Example 1 10 μM, IFNα 100 U/ml
T1 construct: expressed in transfected cells; host or cells: U4A cells (JAK1-deficient derivative of the human fibroblast line 2fGH), transduced with a baculovirus mammalian expression system
T1 sequence (P23458 whole entry): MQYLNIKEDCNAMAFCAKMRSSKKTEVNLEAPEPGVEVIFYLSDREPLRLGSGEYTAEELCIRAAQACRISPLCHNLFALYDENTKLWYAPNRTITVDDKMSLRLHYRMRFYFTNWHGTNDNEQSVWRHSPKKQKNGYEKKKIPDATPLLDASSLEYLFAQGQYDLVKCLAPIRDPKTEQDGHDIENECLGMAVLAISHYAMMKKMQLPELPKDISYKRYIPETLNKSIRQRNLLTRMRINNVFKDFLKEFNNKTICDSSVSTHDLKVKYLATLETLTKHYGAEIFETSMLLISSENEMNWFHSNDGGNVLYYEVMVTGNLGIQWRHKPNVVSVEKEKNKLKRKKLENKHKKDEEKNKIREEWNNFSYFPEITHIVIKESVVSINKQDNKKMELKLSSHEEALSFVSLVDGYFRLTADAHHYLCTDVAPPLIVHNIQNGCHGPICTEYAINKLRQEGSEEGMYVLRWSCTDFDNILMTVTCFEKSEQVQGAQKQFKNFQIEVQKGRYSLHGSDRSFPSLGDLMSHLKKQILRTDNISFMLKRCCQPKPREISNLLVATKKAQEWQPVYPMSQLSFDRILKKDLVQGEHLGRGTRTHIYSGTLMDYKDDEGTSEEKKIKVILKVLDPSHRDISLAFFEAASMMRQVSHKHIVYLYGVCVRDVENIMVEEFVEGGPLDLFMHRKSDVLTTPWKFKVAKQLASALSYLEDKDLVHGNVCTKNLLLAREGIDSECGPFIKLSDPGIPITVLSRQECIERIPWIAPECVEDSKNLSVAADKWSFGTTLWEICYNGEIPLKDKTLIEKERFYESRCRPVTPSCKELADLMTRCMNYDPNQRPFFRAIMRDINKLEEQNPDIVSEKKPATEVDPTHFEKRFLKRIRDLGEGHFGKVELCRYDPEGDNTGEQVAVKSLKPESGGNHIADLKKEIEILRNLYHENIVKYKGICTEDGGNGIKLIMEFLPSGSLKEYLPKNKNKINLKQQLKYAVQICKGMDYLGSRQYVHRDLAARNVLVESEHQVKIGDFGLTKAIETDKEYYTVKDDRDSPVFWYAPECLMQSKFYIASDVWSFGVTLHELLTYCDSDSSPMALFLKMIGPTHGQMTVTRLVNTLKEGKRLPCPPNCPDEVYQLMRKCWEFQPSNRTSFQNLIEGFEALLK
Experimental: 2fGH and U4A cells were obtained from the Cleveland Clinic. 2fGH is a human fibroblast cell line and U4A cell line is a derivative 2fGH harboring a defect in JAK1 expression (Muller, et al., Nature 366, 129-135 (1993)). Green fluoroscent protein (GFP) or human JAK1 was transduced in U4A cells by baculovirus mammalian expression system. After 24 hours post transduction, the cells were treated with DMSO, Example 1 (10 μM), IFNα (100 U/ml), IFNβ (100 U/ml), or IFNγ (100 U/ml). Untransduced U4A cells and 2fGH cells were included as controls for 6 or 18 hours. The cells were harvested at indicated time points and used for detecting phosphor-STAT1 by western blot (FIG. 10, panel A) or for mRNA analysis by Taqman quantitation (FIG. 10, panel B).
as §4, with “The” for “IFNα (100 U/ml) and DMSO were included as controls. The”, “system” for “System™”
Gene expression was measured using TaqMan Fast Universal PCR Master Mix (Applied Biosystems) and gene specific probes and murine primers in HT7900 FAST System (Invitrogen). As housekeeping genes, actin and GAPDH were used for normalization. Data was calculated by the ΔΔCt method and fold change determined compared to non-treated control samples.

[6] = tested on: respiratory syncytial virus (RSV); experiment: RSV plaque assay on HEp-2 cells; type: cell-based; settings: 1000 U/ml
Experimental: A broad spectrum of antiviral activity of Example 1 was accessed by testing it for potency against other viruses. (See FIG. 8). […] RSV (long form) was inoculated on the layer of HEp-2 cells at multiplicity of infection of <0.001. After 4 hour post infection, the inoculum was replaced with 0.3% agarose containing MEM and various concentration of Example 1 or IFNα. The cells were incubated for up to 5-6 days until the plaques were visible. The cells were then fixed with 3% formaldehyde and stained with neutral red for visualization.

| Compound | EC50 [1] [nM] | EC50 [2] [nM] | Emax [3] [%] | induction of ISG in dose response (ISGs and cytokines mRNA) | Stat1 phosphorylation (western blot) [4] | result in the JAK/STAT activator assay (JAK/STAT) | STAT1 phosphorylation (STAT1 phosphorylation; Example 1 2 uM, 1 h, 6 h, 24 h) | time at which phosphorylated STAT1 peaked (STAT1 phosphorylation) [h] | time of maximum induction of ISGs [5] [h] | activation of STAT1 in U4A cells transduced with JAK1 (human JAK1) | p-STAT1 in U4A cells (JAK1 deficient) transduced with GFP (human JAK1) | RSV plaques [6] |
| --- | --- | --- | --- | --- | --- | --- | --- | --- | --- | --- | --- | --- |
| FC(F)(F)c1nc(C(F)(F)F)c2ccc3nc(-c4nnco4)cn3c2n1 [Compound 11, 4-(1,3,4-oxadiazol-2-yl)-10,12-bis(trifluoromethyl)-2,5,11,13-tetraazatricyclo[7.4.0.0^2,^6]trideca-1(9),3,5,7,10,12-hexaene] | 251 | 794 | 293 | correlated with given doses in all tissues | Stat1 phosphorylation |  |  |  |  |  |  |  |
| FC(F)(F)c1cc(C(F)(F)F)c2ccc3nc(-c4nncs4)cn3c2n1 [Compound 89] |  |  |  |  | did not show phosphorylation of Stat1 | negative |  |  |  |  |  |  |
| IFNα |  |  |  |  | Stat1 phosphorylation |  | induced STAT1 phosphorylation | 1 | 4 | activation of STAT1 was observed | not present | significantly reduced the number and size of the plaques |
